From US9693556B2, “Herbicidal pyridazinone derivatives” (SYNGENTA LIMITED, priority 2011, dated 2017)

Assays:
Type in all cases: in vivo
[1] = test system: Amaranthus retoflexus (AMARE); experiment: Post-emergence herbicidal glasshouse test on Amaranthus retoflexus; details: for POST Application AMARE herbicidal damage (five point scale): post-emergence, 1000 g/h, evaluated after 13 days
Procedure: (§1) Seeds of a variety of test species are sown in standard soil in pots (Alopecurus myosuroides (ALOMY), Setaria faberi (SETFA), Echinochloa crus-galli (ECHCG), Solanum nigrum (SOLNI), Amaranthus retoflexus (AMARE), Ipomoea hederacea (IPOHE)). After cultivation for one day (pre-emergence) or after 8 days cultivation (post-emergence) under controlled conditions in a glasshouse (at 24/16° C., day/night; 14 hours light; 65% humidity), the plants are sprayed with an aqueous spray solution derived from the formulation of the technical active ingredient in acetone/water (50:50) solution containing 0.5% Tween 20 (polyoxyethelyene sorbitan monolaurate, CAS RN 9005-64-5). Compounds are applied at 1000 g/h. The test plants are then grown in a glasshouse under controlled conditions in a glasshouse (at 24/16° C., day/night; 14 hours light; 65% humidity) and watered twice daily. After 13 days for pre and post-emergence, the test is evaluated for the percentage herbicidal damage caused to the plant. The biological activities are shown in the following table on a five point scale (5=80-100% damage; 4=60-79% damage; 3=40-59% damage; 2=20-39% damage; 1=0-19% damage).

[2] = test system: Ipomoea hederacea (IPOHE); experiment: Post-emergence herbicidal glasshouse test on Ipomoea hederacea; details: for POST Application IPOHE herbicidal damage (five point scale): post-emergence, 1000 g/h, evaluated after 13 days
Procedure: as §1

[3] = test system: Ipomoea hederacea (IPOHE); experiment: Pre-emergence herbicidal glasshouse test on Ipomoea hederacea; details: pre-emergence; 1000 g/h; evaluated after 13 days
Procedure: as §1

[4] = test system: Setaria faberi (SETFA); experiment: Pre-emergence herbicidal glasshouse test on Setaria faberi; details: for PRE Application SETFA herbicidal damage (five point scale): pre-emergence, 1000 g/h, evaluated after 13 days
Procedure: as §1

[5] = test system: Solanum nigrum (SOLNI); experiment: Post-emergence herbicidal glasshouse test on Solanum nigrum; details: for POST Application SOLNI herbicidal damage (five point scale): post-emergence, 1000 g/h, evaluated after 13 days
Procedure: as §1

[6] = test system: Alopecurus myosuroides (ALOMY); experiment: Post-emergence herbicidal glasshouse test on Alopecurus myosuroides; details: for POST Application ALOMY herbicidal damage (five point scale): post-emergence, 1000 g/h, evaluated after 13 days
Procedure: as §1

[7] = test system: Echinochloa crus-galli (ECHCG); experiment: Post-emergence herbicidal glasshouse test on Echinochloa crus-galli; details: for POST Application ECHCG herbicidal damage (five point scale): post-emergence, 1000 g/h, evaluated after 13 days
Procedure: as §1

[8] = test system: Alopecurus myosuroides (ALOMY); experiment: Pre-emergence herbicidal glasshouse test on Alopecurus myosuroides; details: for PRE Application ALOMY herbicidal damage (five point scale): pre-emergence, 1000 g/h, evaluated after 13 days
Procedure: as §1

[9] = test system: Setaria faberi (SETFA); experiment: Post-emergence herbicidal glasshouse test on Setaria faberi; details: for POST Application SETFA herbicidal damage (five point scale): post-emergence, 1000 g/h, evaluated after 13 days
Procedure: as §1

[10] = test system: Echinochloa crus-galli (ECHCG); experiment: Pre-emergence herbicidal glasshouse test on Echinochloa crus-galli; details: pre-emergence; 1000 g/h; evaluated after 13 days
Procedure: as §1

[11] = test system: Amaranthus retoflexus (AMARE); experiment: Pre-emergence herbicidal glasshouse test on Amaranthus retoflexus; details: for PRE Application AMARE herbicidal damage (five point scale): pre-emergence, 1000 g/h, evaluated after 13 days
Procedure: as §1

[12] = test system: Solanum nigrum (SOLNI); experiment: Pre-emergence herbicidal glasshouse test on Solanum nigrum; details: for PRE Application SOLNI herbicidal damage (five point scale): pre-emergence, 1000 g/h, evaluated after 13 days
Procedure: as §1

| Compound | POST Application AMARE herbicidal damage (five point scale) [1] | POST Application IPOHE herbicidal damage (five point scale) [2] | PRE Application IPOHE herbicidal damage (five point scale) [3] | PRE Application SETFA herbicidal damage (five point scale) [4] | POST Application SOLNI herbicidal damage (five point scale) [5] | POST Application ALOMY herbicidal damage (five point scale) [6] | POST Application ECHCG herbicidal damage (five point scale) [7] | PRE Application ALOMY herbicidal damage (five point scale) [8] | POST Application SETFA herbicidal damage (five point scale) [9] | PRE Application ECHCG herbicidal damage (five point scale) [10] | PRE Application AMARE herbicidal damage (five point scale) [11] | PRE Application SOLNI herbicidal damage (five point scale) [12] | further results |
| --- | --- | --- | --- | --- | --- | --- | --- | --- | --- | --- | --- | --- | --- |
| CC(C)n1ncc(-c2c(Cl)ccc(Cl)c2Cl)c(O)c1=O [Compound 1.015] | 2 (2=20-39% damage) | 4 (4=60-79% damage) | 1 (1=0-19% damage) | 1 (1=0-19% damage) | 4 (4=60-79% damage) | 1 (1=0-19% damage) | 2 (2=20-39% damage) | 1 (1=0-19% damage) | 1 (1=0-19% damage) | 1 (1=0-19% damage) |  |  |  |
| Cn1ncc(-c2ccccc2[N+](=O)[O-])c(O)c1=O [Compound 1.111] | 2 (2=20-39% damage) | 1 (1=0-19% damage) | 2 (2=20-39% damage) | 1 (1=0-19% damage) | 3 (3=40-59% damage) | 1 (1=0-19% damage) | 1 (1=0-19% damage) | 1 (1=0-19% damage) | 1 (1=0-19% damage) | 1 (1=0-19% damage) |  |  |  |
| CCn1ncc(-c2ccc(S(C)(=O)=O)c(C3=NOCC3)c2Cl)c(O)c1=O [Compound 1.009] | 5 (5=80-100% damage) | 5 (5=80-100% damage) |  | 5 (5=80-100% damage) | 5 (5=80-100% damage) | 5 (5=80-100% damage) | 5 (5=80-100% damage) | 5 (5=80-100% damage) | 5 (5=80-100% damage) | 5 (5=80-100% damage) | 5 (5=80-100% damage) | 5 (5=80-100% damage) |  |
| C=Cc1ccc(-c2cnn(C)c(=O)c2O)c(S(C)(=O)=O)c1 [Compound 1.139] | 5 (5=80-100% damage) | 5 (5=80-100% damage) | 4 (4=60-79% damage) | 1 (1=0-19% damage) | 5 (5=80-100% damage) | 5 (5=80-100% damage) | 5 (5=80-100% damage) | 5 (5=80-100% damage) | 5 (5=80-100% damage) | 5 (5=80-100% damage) | 5 (5=80-100% damage) |  |  |
| CCCCn1c(C2CC2)ncc(-c2cnn(C)c(=O)c2O)c1=O [Compound 10.005] |  |  |  |  |  |  |  |  |  |  |  |  | POST Application AMARE ([1]; post-emergence application, Amaranthus retoflexus, damage score 1-5): 5 (5=80-100% damage); POST Application IPOHE ([2]; post-emergence application, Ipomoea hederacea, damage score 1-5): 4 (4=60-79% damage); PRE Application AMARE ([11]; pre-emergence application, Amaranthus retoflexus, damage score 1-5): 5 (5=80-100% damage); PRE Application SETFA ([4]; pre-emergence application, Setaria faberi, damage score 1-5): 1 (1=0-19% damage); POST Application SOLNI ([5]; post-emergence application, Solanum nigrum, damage score 1-5): 5 (5=80-100% damage); POST Application ALOMY ([6]; post-emergence application, Alopecurus myosuroides, damage score 1-5): 2 (2=20-39% damage); PRE Application SOLNI ([12]; pre-emergence application, Solanum nigrum, damage score 1-5): 5 (5=80-100% damage); POST Application ECHCG ([7]; post-emergence application, Echinochloa crus-galli, damage score 1-5): 5 (5=80-100% damage); PRE Application ALOMY ([8]; pre-emergence application, Alopecurus myosuroides, damage score 1-5): 1 (1=0-19% damage); POST Application SETFA ([9]; post-emergence application, Setaria faberi, damage score 1-5): 5 (5=80-100% damage) |
| Cc1ccn(-c2cnn(C)c(=O)c2O)c(=O)c1 [Compound 1.065] | 5 (5=80-100% damage) | 4 (4=60-79% damage) |  | 2 (2=20-39% damage) | 4 (4=60-79% damage) | 1 (1=0-19% damage) | 5 (5=80-100% damage) | 1 (1=0-19% damage) | 5 (5=80-100% damage) | 3 (3=40-59% damage) | 5 (5=80-100% damage) | 1 (1=0-19% damage) |  |
| CCCn1ncc(-c2ccc(C(F)(F)F)cc2Cl)c(O)c1=O [Compound 1.126] | 5 (5=80-100% damage) | 3 (3=40-59% damage) | 1 (1=0-19% damage) | 1 (1=0-19% damage) | 4 (4=60-79% damage) | 1 (1=0-19% damage) | 2 (2=20-39% damage) | 1 (1=0-19% damage) | 2 (2=20-39% damage) | 1 (1=0-19% damage) |  | 1 (1=0-19% damage) |  |
| Cc1cccn(-c2cnn(C)c(=O)c2O)c1=O [Compound 1.062] | 5 (5=80-100% damage) | 5 (5=80-100% damage) | 1 (1=0-19% damage) | 1 (1=0-19% damage) | 4 (4=60-79% damage) | 2 (2=20-39% damage) | 5 (5=80-100% damage) | 1 (1=0-19% damage) | 4 (4=60-79% damage) | 1 (1=0-19% damage) |  | 1 (1=0-19% damage) |  |
| COc1ccc(-c2cnn(C)c(=O)c2O)c(C(F)(F)F)c1 [Compound 1.115] | 2 (2=20-39% damage) | 4 (4=60-79% damage) |  | 1 (1=0-19% damage) | 5 (5=80-100% damage) | 1 (1=0-19% damage) | 1 (1=0-19% damage) | 1 (1=0-19% damage) | 1 (1=0-19% damage) | 2 (2=20-39% damage) | 4 (4=60-79% damage) | 4 (4=60-79% damage) |  |
